One assay deals with T1, 5-HT2AR (Homo sapiens, UniProt P28223).
T1 construct: expressed in transfected cells; host or cells: CHO cells (5-HT2AR—CHO)
Kind of assay: 5-HT induced intracellular calcium (Cai++) release assay in live 5-HT2AR-CHO cells. The class given is cell-based. Conditions: compound alone or in the presence of 5-HT. The protocol: Selected results for the biological characterization of the synthesized compounds can be found in Ding et al., ACS Chem. Neurosci., 3, 538-545, 2012, and also described herein. The biological activity is assessed using an intracellular calcium (Cai^++) release assay. The best-characterized intracellular signaling pathway of the 5-HT2CR is the activation of phospholipase C (PLCβ) via Gαq/11 proteins and the production of diacylglycerol (DAG) and inositol-1,4,5-trisphosphate (IP3), leading to increased Cai^++ release from intracellular stores (Berg et al., Neuropharmacology 55, 969-76, 2008). Functional characterization of our synthetic PNU-69176E (CYD-1-78-2) and its diastereomer CYD-1-78-1 was determined by utilizing an Cai^++ release assay in live cells in which Cai^++ levels can be regarded as an outcome measure of activation of the 5-HT2CR signaling pathway (Berg et al., Neuropharmacology 55, 969-76, 2008). […]
Changes in Cai^++ levels were determined using the calcium sensitive dye Calcium 4 (FLIPR No-wash kit, Molecular Devices, Sunnyvale, Calif., part #R8142). […] Fluorescence (λex=485 nm, λem=525 nm) was measured with a FlexStation3 (Molecular Devices). […] Addition of 20 μL of 5× concentrated tested compound occurred at 17 sec and fluorescence was recorded every 1.7 sec for 90 sec to determine any innate agonist activity. […]

The subject of another assay is rats. Kind of assay: Spontaneous locomotor activity (open field horizontal ambulation). It is filed as in vivo, rat. The protocol:
Locomotor activity was monitored and quantified under low light conditions using a modified open field activity system (San Diego Instruments, San Diego, Calif.) according to previous publications with minor modifications (Cunningham et al., 2011, Neuropharmacology 61:513-523). Clear Plexiglass chambers (40×40×40 cm) were surrounded by a 4×4 photobeam matrix positioned 4 cm from the chamber floor. Consecutive photobeam breaks within the 16×16 cm of the activity monitor were recorded as central ambulation. Peripheral ambulation was counted as consecutive beam breaks in the surrounding perimeter. Central and peripheral ambulations were summed to provide a measure of total horizontal ambulation. […] The effects of CYD-1-78-2 and CYD-1-79 alone or in combination with the selective 5-HT2CR agonist WAY163909 were established in a within-subjects design. To control for order effects, drug doses and vehicles were administered in random sequence to individual rats across sessions such that all rats received all treatment combinations and were tested every three days. Rats received vehicle (saline, 1 mL/kg, i.p.), CYD-1-78-2 (0.5, 1, or 3 mg/kg, i.p.) or the combination of CYD-1-78-2 (0.5 mg/kg, i.p.) plus WAY163909 (1 mg/kg, i.p.) immediately prior to placement in activity monitors on each test day; locomotor activity was assessed for 90 min. In a separate cohort of rats, rats received vehicle (saline, 1 mL/kg, i.p.), CYD-1-79 (0.5, 1, or 5 mg/kg, i.p.) or the combination of CYD-1-79 (0.5 mg/kg, i.p.) plus WAY163909 (1 mg/kg, i.p.) immediately prior to placement in activity monitors on each test day; locomotor activity was assessed for 90 min. The combination of CYD-1-78-2 plus WAY163909 or CYD-1-79 plus WAY163909 was administered simultaneously.
Locomotor activity data are presented as mean total horizontal ambulation (±SEM) over the entire 90-min session or within 5 min time bins across the session. A two-way ANOVA for repeated measures for the factors of treatment and time was conducted. The main effect of treatment on total horizontal ambulation was analyzed with a repeated measures, one-way analysis of variance using the GLM procedure (SAS for Windows). Subsequent a priori comparisons between means for total horizontal ambulation were made using the Dunnett's procedure, with vehicle (saline) as the comparator.

T1 sequence (P28223 whole entry): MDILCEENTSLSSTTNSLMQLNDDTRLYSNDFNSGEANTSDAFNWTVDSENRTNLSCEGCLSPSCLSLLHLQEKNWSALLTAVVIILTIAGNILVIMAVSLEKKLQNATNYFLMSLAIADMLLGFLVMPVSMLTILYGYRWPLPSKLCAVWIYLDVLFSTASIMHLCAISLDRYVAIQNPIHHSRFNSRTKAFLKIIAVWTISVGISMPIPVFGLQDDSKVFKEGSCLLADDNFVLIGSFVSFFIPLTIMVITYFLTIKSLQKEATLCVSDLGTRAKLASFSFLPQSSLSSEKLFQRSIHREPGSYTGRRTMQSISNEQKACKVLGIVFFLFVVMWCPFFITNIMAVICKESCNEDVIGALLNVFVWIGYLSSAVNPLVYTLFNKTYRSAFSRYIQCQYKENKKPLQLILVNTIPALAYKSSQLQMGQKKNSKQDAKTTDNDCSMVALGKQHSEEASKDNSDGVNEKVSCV

With `CCCCCCCCCCC[C@@H]1CCN[C@H](C(=O)N[C@@H]([C@H]2O[C@H](SC)[C@H](O)[C@@H](O)[C@H]2O)[C@H](C)Cl)C1.Cl` [CYD-1-78-2], the “alteration of Cai++ release in 5-HT2AR-CHO cells” value at 5-HT2AR was “neither”. Moreover, the “effect on spontaneous locomotor activity” value in the assay on rats (0.5 mg/kg alone) was “ineffective”. Besides, the “total horizontal ambulation versus saline, combination with WAY163909” value in the assay on rats (0.5 mg/kg i.p. plus WAY163909 1 mg/kg i.p., 90-min session, p<0.05) is given as “significantly reduces”. Also, in the assay with rats (0.5 mg/kg i.p. plus WAY163909 1 mg/kg i.p., CYD-1-78-2: interval 1 and 2, CYD-1-79: interval 2, p<0.05), the “horizontal ambulation versus saline in 5-min intervals, combination with WAY163909” value is recorded as “significantly reduces”. For the same compound, the “horizontal ambulation versus saline in 5-min intervals” value in the assay with rats (1 mg/kg i.p., at interval 4, 5 and 6, p<0.05) is “significantly reduces”; with rats (3 mg/kg i.p., at interval 1, 2, 3 and 11, p<0.05), “significantly reduces”. In addition, the “total horizontal ambulation summed across the 90-min test session versus saline” value with rats (1 mg/kg i.p., p<0.05) is recorded as “significantly reduces”; with rats (3 mg/kg i.p., p<0.05) it was “significantly reduces”. Also, in the assay with rats (1 and 3 mg/kg, i.p., unhabituated animals, 90 minutes), the total ambulations result was “dose-dependently decreases”. Besides, the “selective 5-HT2CR agonist-mediated suppression of spontaneous locomotor activity” value with rats (with WAY163909) was “augment”.

Source of the values: US9533973B2, “Allosteric modulators of 5-hydroxytryptamine 2C receptor (5-HT2CR)” (THE BOARD OF REGENTS OF THE UNIVERSITY OF TEXAS SYSTEM, priority 2011, dated 2017).
